According to the supplement of paper PMC4932681:

How the values were obtained:
[1] = system: BT-474 Tam1; assay: drug sensitivity score (DSS) (DSS (dimensionless)); higher = more sensitive; extreme values may be limits of the assay; conditions: 4-OH-tamoxifen in medium 1 µM; 72 h
Summary of the method: (§1)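 Breast cancer cell lines and their resistant derivatives were seeded into 384-well plates holding FO2Baq library drugs at five concentrations spanning a 10 000-fold range. Resistant lines were in medium with 1 μM of the selecting drug. Cells were incubated 72 h at 37 °C, and CellTiter-Glo viability was read on a PHERAstar and normalised to vehicle-only and positive controls. Drug sensitivity score, relative IC50 (curve midpoint) and top-dose inhibition came from logistic dose–response fits (Breeze pipeline).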

[2] = system: BT-474 Tam2; assay: as above; conditions: 4-OH-tamoxifen in medium 1 µM; 72 h
Summary of the method: as §1

[3] = system: BT-474; assay: as above; conditions: 72 h
Summary of the method: as §1

[4] = system: MCF-7 Tam1; assay: as above; conditions: 4-OH-tamoxifen in medium 1 µM; 72 h
Summary of the method: as §1

[5] = system: MCF-7; assay: as above; conditions: 72 h
Summary of the method: as §1

[6] = system: T-47D Tam1; assay: as above; conditions: 4-OH-tamoxifen in medium 1 µM; 72 h
Summary of the method: as §1

[7] = system: T-47D Tam2; assay: as above; conditions: 4-OH-tamoxifen in medium 1 µM; 72 h
Summary of the method: as §1

[8] = system: T-47D; assay: as above; conditions: 72 h
Summary of the method: as §1

[9] = system: ZR-75-1 Tam1; assay: as above; conditions: 4-OH-tamoxifen in medium 1 µM; 72 h
Summary of the method: as §1

[10] = system: ZR-75-1 Tam2; assay: as above; conditions: 4-OH-tamoxifen in medium 1 µM; 72 h
Summary of the method: as §1

[11] = system: ZR-75-1; assay: as above; conditions: 72 h
Summary of the method: as §1

[12] = system: BT-474 Tam1; assay: relative IC50 (midpoint of fitted logistic curve, plateau may be below 50% inhibition; CellTiter-Glo viability); higher = less potent; conditions: 4-OH-tamoxifen in medium 1 µM; 72 h
Summary of the method: as §1

[13] = system: BT-474 Tam2; assay: as above; conditions: 4-OH-tamoxifen in medium 1 µM; 72 h
Summary of the method: as §1

[14] = system: BT-474; assay: as above; conditions: 72 h
Summary of the method: as §1

[15] = system: MCF-7 Tam1; assay: as above; conditions: 4-OH-tamoxifen in medium 1 µM; 72 h
Summary of the method: as §1

[16] = system: MCF-7; assay: as above; conditions: 72 h
Summary of the method: as §1

[17] = system: T-47D Tam1; assay: as above; conditions: 4-OH-tamoxifen in medium 1 µM; 72 h
Summary of the method: as §1

[18] = system: T-47D Tam2; assay: as above; conditions: 4-OH-tamoxifen in medium 1 µM; 72 h
Summary of the method: as §1

[19] = system: T-47D; assay: as above; conditions: 72 h
Summary of the method: as §1

[20] = system: ZR-75-1 Tam1; assay: as above; conditions: 4-OH-tamoxifen in medium 1 µM; 72 h
Summary of the method: as §1

[21] = system: ZR-75-1 Tam2; assay: as above; conditions: 4-OH-tamoxifen in medium 1 µM; 72 h
Summary of the method: as §1

[22] = system: ZR-75-1; assay: as above; conditions: 72 h
Summary of the method: as §1

| SMILES | relative IC50 [12] | relative IC50 [13] | relative IC50 ([14]; 4-OH-tamoxifen in medium 0 µM) | relative IC50 ([14]; 4-OH-tamoxifen in medium 1 µM) | relative IC50 [15] | relative IC50 ([16]; 4-OH-tamoxifen in medium 0 µM) | relative IC50 [17] | relative IC50 [18] | relative IC50 ([19]; 4-OH-tamoxifen in medium 0 µM) | relative IC50 ([19]; 4-OH-tamoxifen in medium 1 µM) | drug sensitivity score [1] | drug sensitivity score [2] | drug sensitivity score ([3]; 4-OH-tamoxifen in medium 0 µM) | drug sensitivity score ([3]; 4-OH-tamoxifen in medium 1 µM) | drug sensitivity score [4] | drug sensitivity score ([5]; 4-OH-tamoxifen in medium 0 µM) | drug sensitivity score ([5]; 4-OH-tamoxifen in medium 1 µM) | drug sensitivity score [6] | drug sensitivity score [7] | drug sensitivity score ([8]; 4-OH-tamoxifen in medium 0 µM) | drug sensitivity score ([8]; 4-OH-tamoxifen in medium 1 µM) | drug sensitivity score [9] | drug sensitivity score [10] | drug sensitivity score ([11]; 4-OH-tamoxifen in medium 0 µM) | drug sensitivity score ([11]; 4-OH-tamoxifen in medium 1 µM) | relative IC50 ([16]; 4-OH-tamoxifen in medium 1 µM) | relative IC50 [20] | relative IC50 [21] | relative IC50 ([22]; 4-OH-tamoxifen in medium 0 µM) | relative IC50 ([22]; 4-OH-tamoxifen in medium 1 µM) |
| --- | --- | --- | --- | --- | --- | --- | --- | --- | --- | --- | --- | --- | --- | --- | --- | --- | --- | --- | --- | --- | --- | --- | --- | --- | --- | --- | --- | --- | --- | --- |
| O=NN(CCCl)C(=O)NCCCl [Carmustine] | > 10 µM | > 10 µM | > 10 µM | > 10 µM | > 10 µM | > 10 µM | > 10 µM | > 10 µM | > 10 µM | > 10 µM | 0 | 0 | 0 | 0 | 0 | 0 | 0 | 0 | 0 | 0 | 0 | 0 | 0 | 0 | 0 | > 10 µM | > 10 µM | > 10 µM | > 10 µM | > 10 µM |
| O=C(O)CCCc1ccc(N(CCCl)CCCl)cc1 [Chlorambucil] | > 10 µM | > 10 µM | > 10 µM | > 10 µM | > 10 µM | > 10 µM | > 10 µM | > 10 µM | > 10 µM | > 10 µM | 0 | 0 | 0 | 0 | 0 | 0 | 0 | 0 | 0 | 0 | 0 | 0 | 0 | 0 | 0 | > 10 µM | > 10 µM | > 10 µM | > 10 µM | > 10 µM |
| N.N.[Cl][Pt][Cl] [Cisplatin] | > 10 µM | > 10 µM | > 10 µM | > 10 µM | > 10 µM | > 10 µM | > 10 µM | > 10 µM | > 10 µM | > 10 µM | 0 | 0 | 0 | 0 | 0 | 0 | 0 | 0 | 0 | 0 | 0 | 0 | 0 | 0 | 0 | > 10 µM | > 10 µM | > 10 µM | > 10 µM | > 10 µM |
| CC1=C2C[C@H]3[C@@H](CC=C4C[C@@H](O)CC[C@@]43C)[C@@H]2CC[C@]12O[C@@H]1C[C@H](C)CN[C@H]1[C@H]2C [Cyclopamine] | > 10 µM | > 10 µM | > 10 µM | > 10 µM | > 10 µM | > 10 µM | > 10 µM | > 10 µM | > 10 µM | > 10 µM | 0 | 0 | 0 | 0 | 0 | 0 | 0 | 0 | 0 | 0 | 0 | 0 | 0 | 0 | 0 | > 10 µM | > 10 µM | > 10 µM | > 10 µM | > 10 µM |

Now from value to molecule, other results behind:

| relative IC50 [12] | relative IC50 [13] | relative IC50 ([14]; 4-OH-tamoxifen in medium 0 µM) | relative IC50 ([14]; 4-OH-tamoxifen in medium 1 µM) | relative IC50 [15] | relative IC50 ([16]; 4-OH-tamoxifen in medium 0 µM) | relative IC50 [17] | relative IC50 [18] | relative IC50 ([19]; 4-OH-tamoxifen in medium 0 µM) | relative IC50 ([19]; 4-OH-tamoxifen in medium 1 µM) | SMILES | drug sensitivity score [1] | drug sensitivity score [2] | drug sensitivity score ([3]; 4-OH-tamoxifen in medium 0 µM) | drug sensitivity score ([3]; 4-OH-tamoxifen in medium 1 µM) | drug sensitivity score [4] | drug sensitivity score ([5]; 4-OH-tamoxifen in medium 0 µM) | drug sensitivity score ([5]; 4-OH-tamoxifen in medium 1 µM) | drug sensitivity score [6] | drug sensitivity score [7] | drug sensitivity score ([8]; 4-OH-tamoxifen in medium 0 µM) | drug sensitivity score ([8]; 4-OH-tamoxifen in medium 1 µM) | drug sensitivity score [9] | drug sensitivity score [10] | drug sensitivity score ([11]; 4-OH-tamoxifen in medium 0 µM) | drug sensitivity score ([11]; 4-OH-tamoxifen in medium 1 µM) | relative IC50 ([16]; 4-OH-tamoxifen in medium 1 µM) | relative IC50 [20] | relative IC50 [21] | relative IC50 ([22]; 4-OH-tamoxifen in medium 0 µM) | relative IC50 ([22]; 4-OH-tamoxifen in medium 1 µM) |
| --- | --- | --- | --- | --- | --- | --- | --- | --- | --- | --- | --- | --- | --- | --- | --- | --- | --- | --- | --- | --- | --- | --- | --- | --- | --- | --- | --- | --- | --- | --- |
| 0.00459 µM | 0.0153 µM | 0.0256 µM | 0.00367 µM | 0.0746 µM | 0.0197 µM | 0.0114 µM | 0.0334 µM | 0.00882 µM | 0.00282 µM | CC(C)C[C@H](NC(=O)[C@H](CCc1ccccc1)NC(=O)CN1CCOCC1)C(=O)N[C@@H](Cc1ccccc1)C(=O)N[C@@H](CC(C)C)C(=O)[C@@]1(C)CO1 [Carfilzomib] | 27.9 | 20.8 | 14.6 | 28.9 | 12.4 | 17.9 | 21 | 22.7 | 17.1 | 23.1 | 25.8 | 12.8 | 11.8 | 14 | 16.4 | 0.0158 µM | 0.0471 µM | 0.0519 µM | 0.0317 µM | 0.0247 µM |
| > 1 µM | > 1 µM | > 1 µM | > 1 µM | > 1 µM | > 1 µM | > 1 µM | > 1 µM | > 1 µM | > 1 µM | C[C@@H](Oc1cc(-c2cnn(C3CCNCC3)c2)cnc1N)c1c(Cl)ccc(F)c1Cl [Crizotinib] | 0 | 0 | 0 | 0 | 0 | 0 | 0 | 0 | 0 | 0 | 0 | 0 | 0 | 0 | 0 | > 1 µM | > 1 µM | > 1 µM | > 1 µM | > 1 µM |
| > 10 µM | > 10 µM | > 10 µM | > 10 µM | > 10 µM | > 10 µM | > 10 µM | > 10 µM | > 10 µM | > 10 µM | CN(C)/N=N/c1[nH]cnc1C(N)=O [Dacarbazine] | 0 | 0 | 0 | 0 | 0 | 0 | 0.0214 | 0 | 0 | 0 | 0 | 0 | 0 | 0 | 0 | – | > 10 µM | > 10 µM | > 10 µM | > 10 µM |
